Test results reported in patent US20250282799A1, “SUBSTITUTED PYRIDO[4,3-d]PYRIMIDINES AS KRAS MODULATORS” (Alterome Therapeutics, Inc., priority 2023, published 2025).

Test system: KRAS G12V dependent lung adenocarcinoma cell line, NCI-H441
Assay: Cellular pERK (Thr202/Tyr204) FRET/HTRF assay
Type: cell-based
Details: Homo sapiens, NCI-H441, cellular pERK (Thr202/Tyr204) HTRF, NCI-H441 cells
Procedure, shortened: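 Adherent NCI-H441 cells, plated the previous night, receive test compound for one hour at 37 °C. They are then lysed with a buffer containing phosphatase inhibitors and incubated at room temperature with Eu3+-cryptate and d2 labelled anti-pERK antibodies. HTRF signal gives IC50 by curve fitting.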

SMILES	IC50 [nM]
[2H]C([2H])(Oc1nc(N2CCC(=O)C[C@@H]3[C@@H](F)[C@@H]32)c2cnc(-c3cc(N)cc4cc(F)c(F)c(C#C)c34)c(F)c2n1)[C@@]12CCCN1C[C@H](F)C2 [Example 196, (1R,7S,8R)-2-(7-(3-amino-8-ethynyl-6,7-difluoronaphthalen-1-yl)-8-fluoro-2-(((2R,7aS)-2-fluorotetrahydro-1H-pyrrolizin-7a(5H)-yl)methoxy-d2)pyrido[4,3-d]pyrimidin-4-yl)-8-fluoro-2-azabicyclo[5.1.0]octan-5-one]	< 50
[2H]C([2H])(F)Oc1c(F)c(F)cc2cncc(-c3ncc4c(N5CCOC[C@H]6[C@H](F)[C@H]65)nc(OC([2H])([2H])[C@@]56CCCN5C[C@H](F)C6)nc4c3F)c12 [Example 135, (1S,7S,8S)-2-(7-(6,7-difluoro-5-(fluoromethoxy-d2)isoquinolin-4-yl)-8-fluoro-2-(((2R,7aS)-2-fluorotetrahydro-1H-pyrrolizin-7a(5H)-yl)methoxy-d2)pyrido[4,3-d]pyrimidin-4-yl)-8-fluoro-5-oxa-2-azabicyclo[5.1.0]octane]	< 50
[2H]C([2H])(Oc1nc(N2CCCC[C@H]3[C@H](F)[C@H]32)c2cnc(-c3cccc4c(F)cc(F)c(C#C)c34)c(F)c2n1)[C@@]12CCCN1C[C@H](F)C2 [Example 112, 7-(8-ethynyl-5,7-difluoronaphthalen-1-yl)-8-fluoro-4-((1S,7R,8S)-8-fluoro-2-azabicyclo[5.1.0]octan-2-yl)-2-(((2R,7aS)-2-fluorotetrahydro-1H-pyrrolizin-7a(5H)-yl)methoxy-d2)pyrido[4,3-d]pyrimidine]	50 to 500
C#Cc1c(F)ccc2cc(N)cc(-c3ncc4c(N5CCOC[C@H]6[C@H](F)[C@H]65)nc(OC[C@@]56CCCN5C[C@]5(C[C@@H]5F)C6)nc4c3F)c12 (single isomer, unassigned) [Example 255]	< 50
[2H]C([2H])(F)Oc1c(F)ccc2cccc(-c3ncc4c(N5CCOC[C@H]6[C@H](F)[C@H]65)nc(OC[C@@]56CCCN5C/C(=C/F)C6)nc4c3F)c12 [Example 156, (1S,7S,8S)-8-fluoro-2-(8-fluoro-7-(7-fluoro-8-(fluoromethoxy-d2)naphthalen-1-yl)-2-(((S,E)-2-(fluoromethylene)tetrahydro-1H-pyrrolizin-7a(5H)-yl)methoxy)pyrido[4,3-d]pyrimidin-4-yl)-5-oxa-2-azabicyclo[5.1.0]octane]	< 50

The next lines start with the values.

IC50 [nM]	SMILES
500 to 10000	Nc1cc(Cl)c(C(F)(F)F)c(-c2ncc3c(N4CCCC[C@H]5[C@H](F)[C@H]54)nc(OC[C@]45CC(=C(F)F)CN4CCC54CC4)nc3c2F)c1 [Example 411, 3-chloro-5-(2-(((R)-6′-(difluoromethylene)tetrahydrospiro [cyclopropane-1,1′-pyrrolizin]-7a′(5′H)-yl)methoxy)-8-fluoro-4-((1S,7R,8S)-8-fluoro-2-azabicyclo[5.1.0]octan-2-yl)pyrido[4,3-d]pyrimidin-7-yl)-4-(trifluoromethyl)aniline]
< 50	[2H]C([2H])(Oc1nc(N2CCOC[C@H]3[C@H](Cl)[C@H]32)c2cnc(-c3cccc4ccc(Cl)c(C#C)c34)c(F)c2n1)[C@@]12CCCN1C[C@H](F)C2 [Example 320, (1S,7S,8S)-8-chloro-2-(7-(7-chloro-8-ethynylnaphthalen-1-yl)-8-fluoro-2-(((2R,7aS)-2-fluorotetrahydro-1H-pyrrolizin-7a(5H)-yl)methoxy-d2)pyrido[4,3-d]pyrimidin-4-yl)-5-oxa-2-azabicyclo[5.1.0]octane]
< 50	[2H]C([2H])(F)Oc1c(F)ccc2cc(N)cc(-c3ncc4c(N5CCOC[C@H]6[C@H](F)[C@H]65)nc(OC[C@]56C/C(=C/F)CN5CCC65CC5)nc4c3F)c12 [Example 389, 6-fluoro-4-(8-fluoro-4-((1S,7S,8S)-8-fluoro-5-oxa-2-azabicyclo[5.1.0]octan-2-yl)-2-(((R,Z)-6′-(fluoromethylene)tetrahydrospiro[cyclopropane-1,1′-pyrrolizin]-7a′(5′H)-yl)methoxy)pyrido[4,3-d]pyrimidin-7-yl)-5-(fluoromethoxy-d2)naphthalen-2-amine]
50 to 500	[2H]C([2H])(Oc1nc(N2CCOC[C@H]3[C@H](F)[C@H]32)c2cnc(-c3c(F)c(N)c(F)c(C)c3C(F)(F)F)c(F)c2n1)[C@@]12CCCN1C[C@H](F)C2 [Example 279, 2,6-difluoro-3-(8-fluoro-4-((1S,7S,8S)-8-fluoro-5-oxa-2-azabicyclo[5.1.0]octan-2-yl)-2-(((2R,7aS)-2-fluorotetrahydro-1H-pyrrolizin-7a(5H)-yl)methoxy-d2)pyrido[4,3-d]pyrimidin-7-yl)-5-methyl-4-(trifluoromethyl)aniline]
< 50	[2H]C([2H])(Oc1nc(N2CCCC[C@H]3[C@H](F)[C@H]32)c2cnc(-c3cc(N)cc4ccc(C)c(C#C)c34)c(F)c2n1)[C@@]12CCCN1[C@H](C)[C@H](F)C2 [Example 417, 5-Ethynyl-4-(8-fluoro-2-(((2R,3R,7aS)-2-fluoro-3-methyltetrahydro-1H-pyrrolizin-7a(5H)-yl)methoxy-d2)-4-((1S,7R,8S)-8-fluoro-2-azabicyclo[5.1.0]octan-2-yl)pyrido[4,3-d]pyrimidin-7-yl)-6-methylnaphthalen-2-amine]

Same assay, conditions: Homo sapiens, NCI-H441, cellular pERK HTRF, NCI-H441 (KRAS G12V) cells

IC50 [nM]	SMILES
< 50	C#Cc1c(F)ccc2cc(O)cc(-c3ncc4c(N5CCOC[C@H]6[C@H](F)[C@H]65)nc(OC[C@]56C/C(=C/F)CN5CCC65CC5)nc4c3C)c12 [Example 449, 5-ethynyl-6-fluoro-4-(4-((1S,7S,8S)-8-fluoro-5-oxa-2-azabicyclo[5.1.0]octan-2-yl)-2-(((R,Z)-6′-(fluoromethylene)tetrahydrospiro[cyclopropane-1,1′-pyrrolizin]-7a′(5′H)-yl)methoxy)-8-methylpyrido[4,3-d]pyrimidin-7-yl)naphthalen-2-ol]

Same assay, conditions: Homo sapiens, NCI-H441, pERK HTRF, NCI-H441 cells (KRAS G12V)

IC50 [nM]	SMILES
50 to 500	[2H]C([2H])(Oc1nc(N2CCC[C@H]3C[C@H]32)c2cnc(-c3cc(N)cc4cc(F)c(F)c(C#C)c34)c(F)c2n1)[C@@]12CCCN1C[C@H](F)C2 [Example 52, 4-(4-((1R,6S)-2-azabicyclo[4.1.0]heptan-2-yl)-8-fluoro-2-(((2R,7aS)-2-fluorotetrahydro-1H-pyrrolizin-7a(5H)-yl)methoxy-d2)pyrido[4,3-d]pyrimidin-7-yl)-5-ethynyl-6,7-difluoronaphthalen-2-amine]
500 to 10000	[2H]C([2H])(Oc1nc(N2CCC[C@H]3[C@@H](F)[C@H]32)c2cnc(-c3cc(N)cc4cc(F)c(F)c(C#C)c34)c(F)c2n1)[C@@]12CCCN1C[C@H](F)C2 [Example 64, 5-Ethynyl-6,7-difluoro-4-(8-fluoro-4-((1S,6R,7R)-7-fluoro-2-azabicyclo[4.1.0]heptan-2-yl)-2-(((2R,7aS)-2-fluorotetrahydro-1H-pyrrolizin-7a(5H)-yl)methoxy-d2)pyrido[4,3-d]pyrimidin-7-yl)naphthalen-2-amine]
500 to 10000	[2H]C([2H])(Oc1nc(N2CCCO[C@H]3[C@@H](F)[C@H]32)c2cnc(-c3cc(N)cc4cc(F)c(F)c(C#C)c34)c(F)c2n1)[C@@]12CCCN1C[C@H](F)C2 [Example 21, 5-Ethynyl-6,7-difluoro-4-(8-fluoro-4-((1R,7S,8S)-8-fluoro-2-oxa-6-azabicyclo[5.1.0]octan-6-yl)-2-(((2R,7aS)-2-fluorotetrahydro-1H-pyrrolizin-7a(5H)-yl)methoxy-d2)pyrido[4,3-d]pyrimidin-7-yl)naphthalen-2-amine]
50 to 500	[2H]C([2H])(Oc1nc(N2CCO[C@@H]3C[C@@H]32)c2cnc(-c3cc(N)cc4cc(F)c(F)c(C#C)c34)c(F)c2n1)[C@@]12CCCN1C[C@H](F)C2 [Example 31, 4-(4-((1R,6S)-2-Oxa-5-azabicyclo[4.1.0]heptan-5-yl)-8-fluoro-2-(((2R,7aS)-2-fluorotetrahydro-1H-pyrrolizin-7a(5H)-yl)methoxy-d2)pyrido[4,3-d]pyrimidin-7-yl)-5-ethynyl-6,7-difluoronaphthalen-2-amine]
500 to 10000	[2H]C([2H])(Oc1nc(N2CCOC[C@H]3[C@@H]2C3(F)F)c2cnc(-c3cc(N)cc4cc(F)c(F)c(C#C)c34)c(F)c2n1)[C@@]12CCCN1C[C@H](F)C2 [Example 20, 4-(4-((1R,7R)-8,8-Difluoro-5-oxa-2-azabicyclo[5.1.0]octan-2-yl)-8-fluoro-2-(((2R,7aS)-2-fluorotetrahydro-1H-pyrrolizin-7a(5H)-yl)methoxy-d2)pyrido[4,3-d]pyrimidin-7-yl)-5-ethynyl-6,7-difluoronaphthalen-2-amine]

Same assay, conditions: cellular pERK (Thr202/Tyr204) HTRF, NCI-H441 cells

IC50 [nM]	SMILES
50 to 500	[2H]C([2H])(Oc1nc(N2CCOC[C@@H]3[C@@H](Cl)[C@@H]32)c2cc(C(F)(F)F)c(-c3ccc(F)c4sc(N)c(C#N)c34)c(F)c2n1)[C@@]12CCCN1C[C@H](F)C2 (atropisomer, axis not shown; (aS)) [Example 419, 2-amino-4-((S)-4-((1R,7R,8R)-8-chloro-5-oxa-2-azabicyclo[5.1.0]octan-2-yl)-8-fluoro-2-(((2R,7aS)-2-fluorotetrahydro-1H-pyrrolizin-7a(5H)-yl)methoxy-d2)-6-(trifluoromethyl)quinazolin-7-yl)-7-fluorobenzo[b]thiophene-3-carbonitrile]
< 50	[2H]C([2H])(Oc1nc(N2CCOC[C@H]3[C@H](F)[C@H]32)c2cc(C#N)c(-c3cc(N)cc4ccc(F)c(C#C)c34)c(F)c2n1)[C@@]12CCCN1C[C@H](F)C2 (atropisomer, axis not shown; (aS)) [Example 358, (S)-7-(3-amino-8-ethynyl-7-fluoronaphthalen-1-yl)-8-fluoro-4-((1S,7S,8S)-8-fluoro-5-oxa-2-azabicyclo[5.1.0]octan-2-yl)-2-(((2R,7aS)-2-fluorotetrahydro-1H-pyrrolizin-7a(5H)-yl)methoxy-d2)quinazoline-6-carbonitrile]
